“Also recorded” adds a separate entry of the source.

For assay [1], the system named is HDAC8. In words: HDAC8 FLUOR DE LYS fluorometric enzyme activity assay on immunoprecipitated HDAC8 fractions. The following applies: Forskolin (10 μM); for HDAC8 enzyme activity, nuclear fraction: immunoprecipitated nuclear fraction (5 μg), vs untreated. The format is biochemical, human. On the procedure:
HDAC8 enzyme activity assay was performed using HDAC8 FLUOR DE LYS fluorometric assay kit (Cat# BML-AK518–0001) for Control, PCI-34051(10 μM), Forskolin (10 μM), Tubastatin (5 μM) - treated and immunoprecipitated samples of either total, cytoplasmic and nuclear fractions of HeLa and HEK 293 T cells using anti-HDAC8 antibody and anti-HDAC6 (2 μg antibody for ~ 500 μg) according to the manufacturer’s protocol.

Assay [2] deals with HDAC8. In words: Immunofluorescence / confocal localization of HDAC8 in HeLa and HEK 293 T cells. The following applies: Forskolin (10 μM), 45 min. The format is cell-based, human. On the procedure: (§1) Human embryonic kidney cells, HEK293T, human cervical carcinoma cells, HeLa, human breast cancer cells, MDA-MB 231, human lung adenocarcinoma cellsA549, chronic myeloid leukemia cells, K562, and human colon cancer cells, HCT11, were obtained from National Centre for Cell Sciences (NCCS), Pune, India. Cell line authentication by STR analysis was performed for 10 genetic loci for all the cell lines by Life code, Genomic technologies Pvt. Ltd., and tested for mycoplasma negative by performing PCR (mycoplasma specific genes) using EZdetect PCR kit for mycoplasma detection (CCK009). All the cells were cultured in high glucose DMEM medium containing 10% foetal bovine serum and 1% Penicillin/streptomycin (Himedia). Cells were seeded in 60 mm dishes and upon attaining 80–90% confluency, treatment was given with PCI-34051(Cayman Chemicals) (10 μM/20 μM) and tubastatin (5 μM) for 24 h or both in combination (PCI-34051 and Tubastatin) and Forskolin (Sigma) (10 μM) for 45 min independently along with untreated control as described earlier.
HeLa and HEK 293 T cells (Control, Forskolin, PCI-34051 (20 μM) treated) were fixed with 4% formaldehyde in PBS for 20 min at RT followed by permeabilization with 0.25% TritonX-100 in PBS. […]

Assay [3] concerns acetylated alpha tubulin, HeLa. As to the kind of experiment: Immunoblot of acetylated alpha tubulin in HeLa cells. The following applies: Forskolin (10 μM), 45 min, immunoblot normalized with GAPDH. Type of assay: cell-based, human. The method, then:
as §1
(§2) Total, cytoplasmic and nuclear fractions of HeLa or HEK 293 T cells treated with or without PCI-34051 (20 μM), [12] tubastatin (5 μM) and/or forskolin (10 μM) were prepared as described previously. Total protein samples of HEK 293 T, HeLa, MDAMB 231, K562, A549 and HCT11 cells / immunoprecipitated HDAC8 and HDAC6 samples from both HeLa and HEK 293 T lysates / HDAC8 siRNA transfected HEK 293 T and HeLa lysates were also prepared. The proteins were separated on 10 or 12% SDS-PAGE, transferred on to nitrocellulose membrane and probed with primary antibodies of HDAC8, Beta actin, Alpha tubulin, anti-acetylated alpha tubulin, HDAC6 and GAPDH. The bands were visualized using chemiluminiscence after probing with HRP-conjugated secondary antibody.
(§3) Source for siRNA oligonucleotides were considered from with sequence, HDAC8 Sense: […] and Anti-sense: […]. The oligonucleotides were converted into siRNA by following standard protocol as described earlier. HeLa and HEK 293 T cells were transfected with HDAC8 siRNA (10–15 μg/100 mm dish) using lipofectamine 2000 (Invitrogen), and considering untransfected as control. Cells were harvested after 72 h of post-transfection and processed for total RNA and protein isolation.

The subject of assay [4] is acetylated alpha tubulin, HEK 293 T. In words: Immunoblot of acetylated alpha tubulin in HEK 293 T cells. The format is cell-based, human. The following applies: HEK 293 T, Forskolin (10 μM), 45 min, immunoblot normalized with GAPDH. On the procedure:
as §1, §2, §3

The subject of assay [5] is HDAC8. The following applies: by phosphorylation (PKA); cited from earlier work. From the text: The cytoplasmic localization of HDAC8 was further confirmed by immunoblot analysis using total, cytoplasmic and nuclear protein fractions of HEK 293 T and HeLa (Fig. 1d). […] With forskolin treatment, there was significant inc ... || In silico and spectroscopy based results have confirmed the interaction of HDAC8 with alpha tubulin & acetylated alpha tubulin peptide. To further validate the functional interaction we carried out IP and co-IP experiments with HDAC8 and acetylated alpha tubulin (ac-tubulin) antibodies. […] Densitometry results for the fold expression ...

For assay [6], the system named is HeLa cells. In words: Cell migration (wound) assay in HeLa cells. Type of assay: cell-based, human. The following applies: PCI-34051 (10 μM) or Paclitaxel (10 μM), 24 and 48 h. The method, then: HeLa cells are grown in 6 well plates in duplicates till it attains 90% confluency and starved with serum free media for overnight. Using a sterile 200 μl tip wound is created by drawing straight lines at three different points in each well. Detached cells are aspirated and washed three times with 1XPBS. Cells are treated with PCI-34051 (10 μM & 20 μM) and Paclitaxel (10 μM & 20 μM) dissolved in 2% FBS respectively along with control (untreated). Migrated cells into the wound were examined by capturing images using Olympus CKX41, ProgRes CT3 phase contrast microscope after 24 and 48 h.

In assay [7] the test system is HeLa cells. As to the kind of experiment: Cell morphology analysis, HeLa. The note with it: HeLa, 20 μM, 24 & 48 h, vs control. The format is cell-based, human. The method, then: (§4) HeLa and HEK 293 T cells are cultured in 6 well plates till attaining 70% confluency. Cells are starved for 12 h without serum and treated with PCI-34051 (20 μM) and Paclitaxel (20 μM) along with untreated control for 24 & 48 h. Examined difference in the morphology was captured by Olympus CKX41, ProgRes CT3 phase contrast microscope at 10X focussed lens.

For a further assay, the system named is HEK 293 T cells. In words: Cell morphology analysis, HEK 293 T. Type of assay: cell-based, human. The following applies: 20 μM, 24 & 48 h, vs control. On the procedure: as §4
The subject of the next assay is tubulin polymerization. The note with it: cited from earlier work. From the text:
Tubulins are one of the major cytoskeletal proteins and consists of alpha, beta and gamma tubulin proteins in the family. Acetylated alpha tubulin is known to stabilize microtubules and effect intracellular transport, cell migration and primary determinant for cell morphology. HDAC8 inhibition impedes the migration property in HeLa in turn affecting the morphology.

Regarding `C=C[C@@]1(C)CC(=O)[C@]2(O)[C@@]3(C)[C@@H](O)CCC(C)(C)[C@@H]3[C@H](O)[C@H](OC(C)=O)[C@@]2(C)O1` [Forskolin], the “cytoplasmic HDAC8 activity” value in the assay with HDAC8 [1] (HeLa and HEK 293 T, cytoplasmic fraction (5 μg)) is “decreased”. Further, in the assay with HDAC8 [1] (HeLa and HEK 293 T, nuclear fraction (5 μg)), the “nuclear HDAC8 enzyme activity (discussion statement)” value is “increased”. Further, the “HDAC8 enzyme activity, nuclear fraction” value in the assay on HDAC8 [1] (HEK 293 T) and in the assay on HDAC8 [1] (HeLa) was “significant increase in the nuclear fraction” in each case. In the assay with HDAC8 [2], the “localization of HDAC8” value is “no difference in localization of HDAC8”. Moreover, the “levels of acetylated alpha tubulin” value in [3] is given as “ac-alpha tubulin levels increase”; in [3] (listed as forskolin), “increased significantly; also recorded: significant increase of acetylated tubulin expression”; in [4] it was “ac-alpha tubulin levels increase”; in [4] (listed as forskolin), “increased significantly”. In the assay with HDAC8 [5], the “effect on HDAC8” value is listed as “known to inactivate HDAC8 by phosphorylation”.
`CC(=O)O[C@H]1C(=O)[C@@]2(C)[C@H]([C@H](OC(=O)c3ccccc3)[C@]3(O)C[C@H](OC(=O)[C@H](O)[C@@H](NC(=O)c4ccccc4)c4ccccc4)C(C)=C1C3(C)C)[C@]1(OC(C)=O)CO[C@@H]1C[C@@H]2O` [Paclitaxel]: the “migration efficiency (rank order)” value with HeLa cells [6] is reported as “Control> > Paclitaxel>PCI-34051”. In the assay on HeLa cells [7], the “cell morphology (cell size)” value is reported as “reduced (shrinking) cell size; also recorded: decreased cell size (shrinking)”. The “cell morphology (aggregation / clump formation)” value in the assay on HEK 293 T cells is given as “clump formation; also recorded: cell aggregation”. For the same molecule, the “consequence of inhibition of tubulin polymerization” value with tubulin polymerization was “cell-cycle arrest and cell death”.

The values above are taken from publication PMC5930436, “Overexpressed HDAC8 in cervical cancer cells shows functional redundancy of tubulin deacetylation with HDAC6” (Cell Communication and Signaling : CCS, 2018).
